# Test results: article PMC7077228 (Viruses, 2020)
# Counter-ions that a name gives are not always drawn. Like-named read-outs stand apart in the source and are kept apart here.
# Tests used:
# [1] = test system: H5N1 IAV (A/Duck/Guangdong/99); experiment: microbe, parasite or virus in culture; format: cell-based, influenza A virus
# A549 cells = experiment: MTT cytotoxicity assay; conditions: for CC50: MTT, 24 h of compound treatment
# [2] = test system: H9N2 IAV (A/Chicken/Guangdong/16/1996); experiment: microbe, parasite or virus in culture; format: cell-based; conditions: Influenza A virus, H9N2, A549, in Gallus gallus
# [3] = test system: PR8 (H1N1) IAV (A/Puerto Rico/8/34); experiment: microbe, parasite or virus in culture; format: cell-based; conditions: Influenza A virus, A549
# H5N1 IAV [4] = format: cell-based, influenza A virus
# H5N1 IAV [5] = format: cell-based, influenza A virus; remark: listed apart in the source
# [6] = test system: A/Duck/Guangdong/99(H5N1) HA; format: cell-based, influenza A virus
# [7] = test system: IAV (H1N1, H5N1, H9N2 and H3N2); experiment: microbe, parasite or virus in culture; format: cell-based, influenza A virus
# [8] = test system: H3N2 IAV (A/Guangdong/Dongguan/1100/2006); experiment: microbe, parasite or virus in culture; format: cell-based; conditions: Influenza A virus, H3N2, A549
# [9] = target: FKBP12 (FK506 binding protein 1A, 12 kDa) (Homo sapiens, UniProt P62942)
# H5N1 IAV [10] = format: cell-based, influenza A virus; remark: listed apart in the source
# [11] = test system: H5N1 IAV HA-induced hemolysis; experiment: microbe, parasite or virus in culture; format: cell-based; conditions: Influenza A virus, H5N1, in Gallus gallus, pH 5.2, read-out: IC50 hemolysis inhibition
# [12] = target: Recombinant influenza HA protein from A/Vietnam/1203/2004 (H5N1) (Influenza A virus (A/Vietnam/1203/2004(H5N1)), UniProt Q5EP31); experiment: biochemical; format: binding
# H5N1 IAV [13] = format: cell-based, influenza A virus; remark: listed apart in the source
# Chain of FKBP12 (FK506 binding protein 1A, 12 kDa) (P62942 whole entry): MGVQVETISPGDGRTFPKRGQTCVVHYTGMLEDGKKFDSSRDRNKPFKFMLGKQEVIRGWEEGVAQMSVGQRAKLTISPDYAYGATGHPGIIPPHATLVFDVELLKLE
smiles,measurement,setting,value
"CC1(C)CC[C@]2(C(=O)O)CC[C@]3(C)C(=CC[C@@H]4[C@@]5(C)CC[C@H](O)C(C)(C)[C@@H]5CC[C@]43C)[C@@H]2C1 [OA-0, oleanolic acid]",EC50,[1],14.2 ± 1.9 µM
same,"SI (selectivity index), ratio of CC50 to EC50",[1],4.7
same,EC50,"[1]; Influenza A virus, H5N1, A549",≤ 14.2 µM
same,CC50,A549 cells,67.4 ± 4.8 µM
same,CC50,A549 cells; listed as oleanolic acid,≥ 31.1 µM
CNC(=O)[C@]12CCC(C)(C)C[C@H]1C1=CC[C@@H]3[C@@]4(C)CC[C@H](O[C@@H]5O[C@H](CO)[C@@H](O[C@@H]6O[C@@H](C)[C@H](O)[C@@H](O)[C@H]6O)[C@H](O)[C@H]5O[C@@H]5O[C@@H](C)[C@H](O)[C@@H](O)[C@H]5O)C(C)(C)[C@@H]4CC[C@@]3(C)[C@]1(C)CC2 [OA-10],EC50,[2],15.3 ± 2.5 µM
same,EC50,[3],6.7 ± 1.4 µM
same,effect of combination on progeny virus titer and NP production,H5N1 IAV [4],synergistic effect
same,"progeny virus yield and NP protein expression, co-treatment",H5N1 IAV [4],mild but significant reduction
same,"progeny virus yield and viral NP production, pre-treatment",H5N1 IAV [4],did not reduce progeny virus yield and viral NP production
same,"progeny virus yield, post-treatment",H5N1 IAV [4],one log reduction
same,H5N1 IAV NP RNA levels,H5N1 IAV [5],significantly inhibited
same,reduction in progeny virus production,H5N1 IAV [5],1.8 log
same,inhibition of HA adsorption to chicken RBCs,[6],did not inhibit HA adsorption to chicken RBCs
same,inhibition of H5N1 virus adsorption to chicken RBCs,[6]; concentrations ≥40 µM,partially blocked
same,"progeny virus titer on PR8, H9N2 and H3N2 infection",[7],reduced progeny virus titer
same,EC50,"[7]; Influenza A virus, H1N1|H3N2|H5N1|H9N2, A549, read-out: EC50 range across IAV subtypes",6.7 to 19.6 µM
same,EC50,[8],19.6 ± 3.7 µM
same,interaction with negative control protein,[9],did not interact
same,effect on IAV infection after co-incubation at 4 °C (virus binding),H5N1 IAV [10],did not affect IAV infection
same,"SI (selectivity index), ratio of CC50 to EC50",[1],>45
same,EC50,"[1]; Influenza A virus, H5N1, A549",14 ± 2.3 µM
same,cytotoxicity at concentrations ≤ 80 µM,"A549 cells; after 24, 48 or 72 h of treatment",No obvious cytotoxicity
same,IC50,[11],26 µM
same,Kd,[12],2.98 pM
"CCOC(=O)c1c(CSc2ccccc2)n(C)c2cc(Br)c(O)c(CN(C)C)c12 [arbidol, Arbidol hydrochloride, reference compound]",IC50,[11],51 µM
"CCC(CC)[C@H](NC(C)=O)[C@@H]1[C@H](O)[C@@H](C(=O)O)C[C@H]1N=C(N)N [peramivir, Peramivir, reference compound]","progeny virus yield and NP protein expression, co-treatment",H5N1 IAV [4],more significant inhibition
same,"progeny virus yield, post-treatment",H5N1 IAV [4],more significant inhibition
same,inhibition on IAV infections (positive control),H5N1 IAV [5],significant inhibition
"NC(=O)c1ncn([C@@H]2O[C@H](CO)[C@@H](O)[C@H]2O)n1 [ribavirin, Ribavirin hydrochloride, reference compound]","progeny virus yield, post-treatment",H5N1 IAV [4],inhibition only in the post-treatment mode
same,"inhibition of viral replication, compound added after 4 hpi",H5N1 IAV [13],no inhibition
